Legend:
[1] = Forearm controlled application test (FCAT), skin hydration by Corneometer; format: in vivo, human
Method: (§1) Topical compositions were tested on skin samples for their ability to improve or maintain skin hydration and limit transepidermal water loss (TEWL). Measurement of the TEWL, expressed in grams per square meter and per hour, is used for studying the water barrier function of the human skin. The more perfect the skin protective coat, the higher the water content and the lower the TEWL. For each of the tests, a negative control was used, which included treatment with 8% SLS. An untreated skin sample was also tested for comparison. The tests were performed using the forearm controlled application test (FCAT) methodology. The various samples were applied to test sites on a forearm over the course of several days. On each day, up to six applications were made and the change in TEWL and hydration levels were recorded. The hydration levels were measured using a Corneometer® based on capacitance measurement of a dielectric medium. The Corneometer® measures the change in the dielectric constant due to skin surface hydration changing the capacitance of a precision capacitor. The measurement can detect even slight changes in the hydration level.
The change in TEWL and hydration levels represent the change observed for that particular sample compared to a baseline (the transepidermal water content or hydration level prior to treatment). […]

[2] = Forearm controlled application test (FCAT), transepidermal water loss (TEWL); format: in vivo, human
Method: as §1, with “level. The change in TEWL and hydration levels represent the change observed for that particular sample compared to a baseline (the transepidermal water content or hydration level prior to treatment). […]” for “level.”

- hydration levels ([1]; Example 1, FIG. 5, change compared to baseline): lowest hydration levels
- change in hydration levels ([1]; Example 2, FIG. 8, wet and dry application, 3 and 5 days of treatment): significant reduction in hydration level
- TEWL ([2]; Example 1, FIG. 6, change compared to baseline): highest TEWL
- change in TEWL ([2]; Example 2, FIG. 7, wet and dry application, 3 and 5 days of treatment): significant TEWL
Compound: CCCCCCCCCCCCOS(=O)(=O)[O-].[Na+] [negative control, SLS]

Source: US20200131454A1, “ALCOHOL CONTAINING BIOFIILM-INHIBITING NON-ANTIMICROBIAL CLEANSING COMPOSITION” (GOJO Industries, Inc., priority 2018, published 2020)
